Measurements reported in publication PMC12186257, “Serendipitous and Systematic Chemoproteomic Discovery of MBLAC2, HINT1, and NME1‑4 Inhibitors from Histone Deacetylase-Targeting Pharmacophores” (ACS Chemical Biology, 2025).
pEC50: −log10 of the molar value.

How the values were obtained:
ALDH2 = target: T1, ALDH2 (Homo sapiens, UniProt P05091); assay: chemoproteomic competition assay (MV4-11/SW620 lysate, iA/iC/iQ beads, MS readout); format: binding; details: nine-dose competition assay; range stated for ALDH2 and GATD3A together
T1 construct: incubated at increasing concentrations with a mixture of lysates of MV4–11 and SW620 cells; endogenous in cells; host or cells: mixed lysate of MV4-11 and SW620 cells
T1 sequence (P05091 18-517): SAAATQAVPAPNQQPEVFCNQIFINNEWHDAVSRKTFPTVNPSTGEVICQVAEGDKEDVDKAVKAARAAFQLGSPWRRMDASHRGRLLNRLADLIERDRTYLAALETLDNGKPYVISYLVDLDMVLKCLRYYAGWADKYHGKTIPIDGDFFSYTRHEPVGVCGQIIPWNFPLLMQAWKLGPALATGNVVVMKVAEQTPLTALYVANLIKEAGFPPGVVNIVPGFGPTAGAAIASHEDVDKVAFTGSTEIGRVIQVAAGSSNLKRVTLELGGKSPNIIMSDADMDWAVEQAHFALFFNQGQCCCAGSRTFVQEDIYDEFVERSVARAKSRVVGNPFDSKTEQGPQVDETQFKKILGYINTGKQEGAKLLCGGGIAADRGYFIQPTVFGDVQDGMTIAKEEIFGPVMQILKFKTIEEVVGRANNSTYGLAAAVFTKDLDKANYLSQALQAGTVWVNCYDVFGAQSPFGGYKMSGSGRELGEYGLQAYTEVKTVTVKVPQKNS
Protocol: (§1) MBLAC2 is a metalloenzyme predicted to harbor one or two Zn^2+ ions in its active site. […] In this assay, compounds of interest are incubated at increasing concentrations with a mixture of lysates of MV4–11 and SW620 cells. The compound-treated lysates are then mixed with bead-immobilized hydroxamic acid-containing compounds iA, iC, and iQ (immobilized Quisinostat), which pull down compound-binding proteins such as HDACs, MBLAC2, ISOC1/2, ALDH2, and GATD3A (Figure a) that can be identified and quantified by mass spectrometry (MS). Proteins targeted by the library compounds in a preincubation step are prevented from being pulled down by the immobilized probes, leading to a dose-dependent reduction in MS signal. Initially, 12 metal-chelating compounds were profiled at two concentrations (10 μM and 100 μM) (Figure S3).
(§2) Chemoproteomic competition assays
(§3) Sample preparation. […]
(§4) LC-MS/MS. The different sample types were measured with different LC-MS/MS settings. MBLAC2 2-dose competition assays were measured with the Lumos1 setup, MBLAC2 9-dose competition assays were measured with the Lumos2 setup, and kinobeads assays were measured with the Eclipse setup.
(§5) Peptides were analyzed via LC–MS/MS on a Dionex Ultimate3000 nano HPLC coupled to either one of two Orbitrap Fusion Lumos mass spectrometers, or to an Orbitrap Eclipse mass spectrometer, operated via the Thermo Scientific Xcalibur software. […]
(§6) In Lumos settings, up to 12 peptide precursors were isolated in (isolation width of 1.2 Th for Lumos1 and 1.7 for Lumos2, maximum injection time of 75 ms, AGC value of 1e5 for Lumos1 and 2e5 for Lumos2), fragmented by HCD using 30% normalized collision energy (NCE) and analyzed in the Orbitrap at a resolution of 15,000 (Lumos2) or 30,000 (Lumos1). […] Peptides were isolated in the quadrupole with an isolation offset of 1.2 (isolation width of 1.2 Th, maximum injection time of 54 ms, AGC target of 200%) and fragmented by HCD with an NCE of 30% and analyzed in the Orbitrap at a resolution of 30,000. […]

GATD3A = target: T2, GATD3A (Homo sapiens, UniProt P0DPI2); assay: as above; format: binding; details: nine-dose competition assay; range stated for ALDH2 and GATD3A together
T2 construct: incubated at increasing concentrations with a mixture of lysates of MV4–11 and SW620 cells; endogenous in cells; host or cells: mixed lysate of MV4-11 and SW620 cells
T2 sequence (P0DPI2 42-268): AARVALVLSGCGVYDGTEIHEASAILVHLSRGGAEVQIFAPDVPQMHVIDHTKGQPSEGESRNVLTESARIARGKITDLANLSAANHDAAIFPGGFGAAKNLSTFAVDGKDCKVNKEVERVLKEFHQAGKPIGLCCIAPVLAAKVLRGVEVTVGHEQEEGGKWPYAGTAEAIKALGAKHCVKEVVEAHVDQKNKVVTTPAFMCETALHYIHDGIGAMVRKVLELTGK
Protocol: as §1, §2, §3, §4, §5, §6

CC(C)Cc1ccc(C(C)C(=O)NO)cc1 (centres unmarked) [Ibuproxam]
pEC50 (ALDH2): 4.52 to 4.64
pEC50 (GATD3A): 4.52 to 4.64
